Assay results as given in patent publication US20080300298A1, “Honokiol Derivates For the Treatment of Proliferative Disorders” (priority 2005, published 2008).

Tested on: MM.1S cells
Experiment: combination with bortezomib
Type: cell-based, human
Description: Assessment of HNK-induced cytotoxicity against patient MM cells: Cytotoxicity of HNK against fresh MM cells was determined as previously determined, see, for example, Mitsiades et al Cancer Cell. 2004; 5:221-230. Fresh MNCs separated from bone marrow samples derived from patients with MM were incubated with PE-conjugated anti-CD138 antibody and/or FITC-conjugated anti-CD38 antibody (BD Biosciences, San Diego, Calif.) for 30 minutes on ice and washed, followed by analysis using EPICS XL flow cytometer (Beckman Coulter, Hialeah, Fla.). A CD38^high fraction enriched for MM cells was determined in side and forward scatter panel in each case. The expression of CD138 on gated cells was also evaluated. After HNK-treatment for 48 h, cells were harvested and percentage of CD38^high cells with or without HNK-treatment was evaluated. […] Cells were stained with propidium iodide (PI; 50 μg/mL; Sigma, St Louis, Mo.), and cell cycle profile was determined by using the program M software on an EPICS XL flow cytometer (Beckman Coulter, Hialeah, Fla.). […] Fluorescence intensity of TUNEL and APO 2.7 staining was determined using on EPICS XL flow cytometer. Cytotoxicity was determined by trypan blue exclusion assay. […] Cell growth and induction of apoptosis were determined both by colorimetric assay and now cytometric detection of APO2.7 after 48 h treatment. […] DNA synthesis was measured by [^3H]-thymidine uptake. […]

C=CCc1ccc(O)c(-c2ccc(O)c(CC=C)c2)c1 [HNK, Honokiol]
Bortezomib-induced up-regulation of Hsp27, p-Hsp27 and Hsp70 (8 h, Western blotting): significantly blocked
cytotoxicity and apoptosis of combined treatment with bortezomib (HNK and bortezomib, 48 h): enhanced the cytotoxicity and induction of apoptosis compared to each drug alone
